Laboratory results from patent US20060069123A1, “Substituted dipiperidine CCR2 antagonists” (priority 2004, published 2006).
Read-outs that look alike come from different tables or passages of the source.

How the values were obtained:
THP-1 cells [1] = assay: MCP-1 Induced Chemotaxis in THP-1 Cells; format: cell-based; settings: THP-1 cells, MCP-1 0.01 μg/mL, 3 hours, read-out: Inhibition of MCP-1 Induced Chemotaxis IC50
CCR2 = target: T1, CCR2 (Homo sapiens, UniProt P41597)
T1 sequence (P41597 1-360 isoform P41597-2): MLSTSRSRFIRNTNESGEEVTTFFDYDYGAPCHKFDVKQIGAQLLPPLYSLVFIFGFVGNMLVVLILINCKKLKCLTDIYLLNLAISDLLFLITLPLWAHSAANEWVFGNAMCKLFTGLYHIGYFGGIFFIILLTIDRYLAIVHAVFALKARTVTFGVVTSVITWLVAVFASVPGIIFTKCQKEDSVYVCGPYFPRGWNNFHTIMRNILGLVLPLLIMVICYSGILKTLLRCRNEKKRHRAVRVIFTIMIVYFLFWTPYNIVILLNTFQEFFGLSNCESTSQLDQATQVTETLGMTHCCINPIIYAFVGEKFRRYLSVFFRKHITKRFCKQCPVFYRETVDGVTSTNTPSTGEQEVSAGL

THP-1 cells [2] = tested on: THP-1 cells
[3] = Homo sapiens, THP-1, read-out: Inhibition of MCP-1 Induced Calcium Ion Influx IC50

Which IC50 (THP-1 cells [1]; Homo sapiens) does the source give for O=C(/C=C/c1cc(F)c(F)c(F)c1)N1CCC(C(CO)N2CCC(c3cc[nH]n3)CC2)CC1 (stereo not drawn) [Cpd 156, (2E)-1-(4-{2-hydroxy-1-[4-(1H-pyrazol-3-yl)-piperidin-1-yl]-ethyl}-piperidin-1-yl)-3-(3,4,5-trifluoro-phenyl)-propenone] here?
Its IC50 is 0.12 µM.

What about the IC50 (CCR2) of the same compound?
The IC50 was 0.08 µM.

What about the inhibition at 25 µM (THP-1 cells [2]; Homo sapiens, THP-1, read-out: Inhibition of MCP-1 Induced Calcium Ion Influx, percent inhibition) of the same compound?
The inhibition at 25 µM was 50%.

O=C(c1cc2cc(Cl)ccc2o1)N1CCC(C(CO)N2CCC(c3c[nH]c4ccccc34)CC2)CC1 (stereo not drawn) [Cpd 157, (5-chloro-benzofuran-2-yl)-(4-{2-hydroxy-1-[4-(1H-indol-3-yl)-piperidin-1-yl]-ethyl}-piperidin-1-yl)-methanone] was tested. Which IC50 (THP-1 cells [1]; Homo sapiens) did it give?
Its IC50 is 0.46 µM.

What about the IC50 (CCR2) of the same compound?
Its IC50 is 0.44 µM.

And the IC50 (THP-1 cells [2]; [3])?
The IC50 was 0.32 µM.

What does the source list for COc1ccc(C2CCN(C(CO)C3CCN(C(=O)/C=C/c4cc(F)c(F)c(F)c4)CC3)CC2)cc1 (stereo not drawn) [Cpd 158, (2E)-1-(4-{2-hydroxy-1-[4-(4-methoxy-phenyl)-piperidin-1-yl]-ethyl}-piperidin-1-yl)-3-(3,4,5-trifluoro-phenyl)-propenone]?
IC50 (THP-1 cells [1]; Homo sapiens): 0.1 µM; IC50 (CCR2): 0.1 µM; IC50 (THP-1 cells [2]; [3]): 0.14 µM

What does the source list for COc1ccc(C2CCN(C(CO)C3CCN(C(=O)/C=C/c4ccccc4)CC3)CC2)cc1 (stereo not drawn) [Cpd 159, (2E)-1-(4-{2-hydroxy-1-[4-(4-methoxy-phenyl)-piperidin-1-yl]-ethyl}-piperidin-1-yl)-3-phenyl-propenone]?
IC50 (THP-1 cells [1]; Homo sapiens): 0.86 µM; IC50 (CCR2): 0.27 µM; IC50 (THP-1 cells [2]; [3]): 2.1 µM

What does the source list for COc1ccc(C2CCN(C(CO)C3CCN(C(=O)/C=C/c4ccc(F)c(Br)c4)CC3)CC2)cc1 (stereo not drawn) [Cpd 161, (2E)-3-(3-bromo-4-fluoro-phenyl)-1-(4-{2-hydroxy-1-[4-(4-methoxy-phenyl)-piperidin-1-yl]-ethyl}-piperidin-1-yl)-propenone]?
IC50 (THP-1 cells [1]; Homo sapiens): 0.09 µM; IC50 (CCR2): 0.05 µM; IC50 (THP-1 cells [2]; [3]): 0.18 µM

Which IC50 (THP-1 cells [1]; Homo sapiens) does the source give for COc1ccc2[nH]cc(C3CCN(C(CO)C4CCN(C(=O)/C=C/c5ccc(Cl)c(Cl)c5)CC4)CC3)c2c1 (stereo not drawn) [Cpd 162, (2E)-3-(3,4-dichloro-phenyl)-1-(4-{2-hydroxy-1-[4-(5-methoxy-1H-indol-3-yl)-piperidin-1-yl]-ethyl}-piperidin-1-yl)-propenone] here?
The IC50 was 0.02 µM.

And the IC50 (CCR2)?
Its IC50 is 0.007 µM.

What about the IC50 (THP-1 cells [2]; [3]) of the same compound?
The IC50 was 0.002 µM.

For COc1ccc2c(C3CCN(C(CO)C4CCN(C(=O)/C=C/c5ccc(Cl)c(Cl)c5)CC4)CC3)c[nH]c2c1 (stereo not drawn) [Cpd 163, (2E)-3-(3,4-dichloro-phenyl)-1-(4-{2-hydroxy-1-[4-(6-methoxy-1H-indol-3-yl)-piperidin-1-yl]-ethyl}-piperidin-1-yl)-propenone], which IC50 (THP-1 cells [1]; Homo sapiens) is on record?
Its IC50 is 0.15 µM.

And the IC50 (CCR2)?
The IC50 was 0.03 µM.

And the IC50 (THP-1 cells [2]; [3])?
Its IC50 is 0.01 µM.

With COc1ccc2[nH]cc(C3CCN(C(CO)C4CCN(C(=O)/C=C/c5cc(F)cc(F)c5)CC4)CC3)c2c1 (stereo not drawn) [Cpd 164, (2E)-3-(3,5-difluoro-phenyl)-1-(4-{2-hydroxy-1-[4-(5-methoxy-1H-indol-3-yl)-piperidin-1-yl]-ethyl}-piperidin-1-yl)-propenone] as the compound, how does the IC50 (THP-1 cells [1]; Homo sapiens) read?
The IC50 was 0.04 µM.

What about the IC50 (CCR2) of the same compound?
Its IC50 is 0.01 µM.

And the IC50 (THP-1 cells [2]; [3])?
Its IC50 is 0.009 µM.

What does the source list for COc1ccc2c(C3CCN(C(CO)C4CCN(C(=O)/C=C/c5cc(F)cc(F)c5)CC4)CC3)c[nH]c2c1 (stereo not drawn) [Cpd 165, (2E)-3-(3,5-difluoro-phenyl)-1-(4-{2-hydroxy-1-[4-(6-methoxy-1H-indol-3-yl)-piperidin-1-yl]-ethyl}-piperidin-1-yl)-propenone]?
IC50 (THP-1 cells [1]; Homo sapiens): 0.025 µM; IC50 (CCR2): 0.08 µM; IC50 (THP-1 cells [2]; [3]): 0.11 µM

Which results are given for COc1ccc2[nH]cc(C3CCN(C(CO)C4CCN(C(=O)/C=C/c5cc(F)c(F)c(F)c5)CC4)CC3)c2c1 (stereo not drawn) [Cpd 166, (2E)-1-(4-{2-hydroxy-1-[4-(5-methoxy-1H-indol-3-yl)-piperidin-1-yl]-ethyl}-piperidin-1-yl)-3-(3,4,5-trifluoro-phenyl)-propenone]?
IC50 (THP-1 cells [1]; Homo sapiens): 0.03 µM; IC50 (CCR2): 0.006 µM; IC50 (THP-1 cells [2]; [3]): 0.008 µM

With O=C(/C=C/c1ccc(Cl)c(Cl)c1)N1CCC(C(CO)N2CCC(c3c[nH]c4ccc(F)cc34)CC2)CC1 (stereo not drawn) [Cpd 168, (2E)-3-(3,4-dichloro-phenyl)-1-(4-{1-[4-(5-fluoro-1H-indol-3-yl)-piperidin-1-yl]-2-hydroxy-ethyl}-piperidin-1-yl)-propenone] as the compound, how does the IC50 (THP-1 cells [1]; Homo sapiens) read?
The IC50 was 0.04 µM.

And the IC50 (CCR2)?
The IC50 was 0.02 µM.

What about the IC50 (THP-1 cells [2]; [3]) of the same compound?
The IC50 was 0.01 µM.

Which IC50 (THP-1 cells [1]; Homo sapiens) does the source give for O=C(/C=C/c1ccc(F)cc1)N1CCC(C(CO)N2CCC(c3c[nH]c4ccc(F)cc34)CC2)CC1 (stereo not drawn) [Cpd 169, (2E)-1-(4-{1-[4-(5-fluoro-1H-indol-3-yl)-piperidin-1-yl]-2-hydroxy-ethyl}-piperidin-1-yl)-3-(4-fluoro-phenyl)-propenone] here?
The IC50 was 0.055 µM.

What about the IC50 (CCR2) of the same compound?
The IC50 was 0.057 µM.

And the IC50 (THP-1 cells [2]; [3])?
The IC50 was 0.17 µM.

For O=C(/C=C/c1cc(F)c(F)c(F)c1)N1CCC(C(CO)N2CCC(c3c[nH]c4ccc(F)cc34)CC2)CC1 (stereo not drawn) [Cpd 170, (2E)-1-(4-{1-[4-(5-fluoro-1H-indol-3-yl)-piperidin-1-yl]-2-hydroxy-ethyl}-piperidin-1-yl)-3-(3,4,5-trifluoro-phenyl)-propenone], which IC50 (THP-1 cells [1]; Homo sapiens, THP-1, 3 h) is on record?
The IC50 was 0.009 µM.

And the IC50 (CCR2; Inhibition of MCP-1 Binding IC50, 125I labeled MCP-1 binding to CCR2, THP-1 cells)?
The IC50 was 0.04 µM.

And the IC50 (THP-1 cells [2]; Homo sapiens, THP-1, read-out: Inhibition of MCP-1 Induced Calcium Ion Influx IC50, THP-1 cells, 0.2 μM MCP-1, FLIPR)?
The IC50 was 0.01 µM.

For O=C(/C=C/c1cc(F)cc(F)c1)N1CCC(C(CO)N2CCC(c3c[nH]c4ccc(F)cc34)CC2)CC1 (stereo not drawn) [Cpd 171, (2E)-3-(3,5-difluoro-phenyl)-1-(4-{1-[4-(5-fluoro-1H-indol-3-yl)-piperidin-1-yl]-2-hydroxy-ethyl}-piperidin-1-yl)-propenone], which IC50 (THP-1 cells [1]; Homo sapiens) is on record?
The IC50 was 0.006 µM.

What about the IC50 (CCR2) of the same compound?
The IC50 was 0.0045 µM.

What about the IC50 (THP-1 cells [2]; [3]) of the same compound?
The IC50 was 0.007 µM.

Which IC50 (THP-1 cells [1]; Homo sapiens) does the source give for O=C(/C=C/c1ccc(F)c(Br)c1)N1CCC(C(CO)N2CCC(c3c[nH]c4ccc(F)cc34)CC2)CC1 (stereo not drawn) [Cpd 172, (2E)-3-(3-bromo-4-fluoro-phenyl)-1-(4-{1-[4-(5-fluoro-1H-indol-3-yl)-piperidin-1-yl]-2-hydroxy-ethyl}-piperidin-1-yl)-propenone] here?
The IC50 was 0.03 µM.

And the IC50 (CCR2)?
The IC50 was 0.032 µM.

And the IC50 (THP-1 cells [2]; [3])?
Its IC50 is 0.02 µM.

Which results are given for O=C(/C=C/c1cc(F)cc(F)c1)N1CCC(C(CO)N2CCC(c3n[nH]c4ccccc34)CC2)CC1 (stereo not drawn) [Cpd 173, (2E)-3-(3,5-difluoro-phenyl)-1-(4-{2-hydroxy-1-[4-(1H-indazol-3-yl)-piperidin-1-yl]-ethyl}-piperidin-1-yl)-propenone]?
IC50 (THP-1 cells [1]): 0.13 µM; IC50 (CCR2; read-out: Inhibition of MCP-1 Binding IC50, 125I labeled MCP-1 binding to CCR2, THP-1 cells): 0.43 µM; Inhibition of MCP-1 Induced Calcium Ion Influx, percent inhibition (THP-1 cells [2]; test concentration of 25 μM, IC50 not obtained): 21%

Which results are given for O=C(/C=C/c1cc(F)c(F)c(F)c1)N1CCC(C(CO)N2CCC(c3nc4ccccc4[nH]3)CC2)CC1 (stereo not drawn) [Cpd 175, (2E)-1-(4-{1-[4-(1H-benzoimidazol-2-yl)-piperidin-1-yl]-2-hydroxy-ethyl}-piperidin-1-yl)-3-(3,4,5-trifluoro-phenyl)-propenone]?
IC50 (THP-1 cells [1]; Homo sapiens): 0.3 µM; IC50 (CCR2): 0.188 µM; IC50 (THP-1 cells [2]; [3]): 2.3 µM

Which IC50 (THP-1 cells [1]; Homo sapiens) does the source give for O=C(/C=C/c1ccc(Cl)c(Cl)c1)N1CCC(C(CO)N2CCC(c3nc4ccccc4[nH]3)CC2)CC1 (stereo not drawn) [Cpd 176, (2E)-1-(4-{1-[4-(1H-benzoimidazol-2-yl)-piperidin-1-yl]-2-hydroxy-ethyl}-piperidin-1-yl)-3-(3,4-dichloro-phenyl)-propenone] here?
The IC50 was 0.09 µM.

And the IC50 (CCR2)?
The IC50 was 0.07 µM.

And the IC50 (THP-1 cells [2]; [3])?
Its IC50 is 2.61 µM.

What does the source list for Nc1ccc2[nH]cc(C3CCN(C(C(=O)O)C4CCN(C(=O)/C=C/c5cc(F)c(F)c(F)c5)CC4)CC3)c2n1 (stereo not drawn) [Cpd 178, [4-(5-amino-1H-pyrrolo[3,2-b]pyridin-3-yl)-piperidin-1-yl]-{1-[(2E)-3-(3,4,5-trifluoro-phenyl)-acryloyl]-piperidin-4-yl}-acetic acid]?
IC50 (THP-1 cells [1]; Homo sapiens): 0.18 µM; IC50 (CCR2): 0.09 µM; IC50 (THP-1 cells [2]; [3]): 2.35 µM
